Consider seven molecules from US20220409629A1, “BENZODIAZEPINE DERIVATIVES FOR TREATING A RESPIRATORY SYNCYTIAL VIRUS (RSV) INFECTION” (priority 2019, published 2022).

Data set [1] deals with RSV A2. Description: RSV plaque reduction assay. The note with it: Hep-G2 cells, RSV A2, mean of at least two experiments. It counts as cell-based, respiratory syncytial virus (RSV). An outline of the steps:
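RSV A2 (100 PFU/well) premixed with eight serial compound dilutions, added to confluent Hep-G2 monolayers for 2 h at 37° C, then held 2 days under CMC overlay containing compound (DMEM, 2% FBS). Plaques immunostained (HRP/TrueBlue) and counted; EC50 is 50% reduction versus virus control from 4-parameter fit, mean of ≥2 experiments.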

Data set [2] relates to Hep-G2 cells. Description: Cell cytotoxicity CC50. The class given is cell-based. The following applies: mean of at least two experiments.
Data set [3] in a line: Liver microsomal stability, dog. It counts as in vitro ADME. The following applies: dog liver microsomes, 0.5 mg/mL protein, 1 μM compound, NADPH, >80% remaining at 45 min denoted >140; for half-life: pH 7.4, read-out: Liver Microsomal Stability: t1/2 (min), dog. An outline of the steps: (§1)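 Pooled liver microsomes (0.5 mg/mL protein) in 0.1 M phosphate pH 7.4 with 1 μM compound (0.25% DMSO), started with 1 mM NADPH at 37° C; sampled 0-45 min, minus-NADPH control 45 min. LC-MS/MS depletion slope gave t1/2 and CLint.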
Background: Liver microsomes are a subcellular fraction often used to study metabolism.

A short description of data set [4]: Liver microsomal stability, human. The class given is in vitro ADME. The following applies: human liver microsomes, 0.5 mg/mL protein, 1 μM compound, NADPH, >80% remaining at 45 min denoted >140; for half-life: pH 7.4, read-out: Liver Microsomal Stability: t1/2 (min), human. An outline of the steps:
as §1

A short description of data set [5]: Liver microsomal stability, rat. It counts as in vitro ADME. The note with it: rat liver microsomes, 0.5 mg/mL protein, 1 μM compound, NADPH, >80% remaining at 45 min denoted >140; for half-life: pH 7.4, read-out: Liver Microsomal Stability: t1/2 (min), rat. An outline of the steps:
as §1

Data set [6] in a line: Liver hepatocyte stability, dog. It counts as in vitro ADME. The following applies: dog hepatocytes, 3 μM compound, 60 min, >80% remaining at 60 min denoted >186, read-out: Liver Hepatocyte Stability: t1/2 (min). How it is done:
(§2) Cryopreserved pooled hepatocytes were purchased from a reputable commercial supplier and stored in liquid nitrogen prior to use. Williams E media supplemented with 2 mM L-glutamine and 25 mM HEPES and test compound (final substrate concentration 3 μM; final DMSO concentration 0.25%) are pre-incubated at 37° C. prior to the addition of a suspension of cryopreserved hepatocytes (final cell density 0.5×10^6 viable cells/mL in Williams E media supplemented with 2 mM L-glutamine and 25 mM HEPES) to initiate the reaction. The final incubation volume is 500 μL. Two control compounds were included with each species, alongside appropriate vehicle control. The reactions are stopped by transferring 50 μL of incubate to 100 μL acetonitrile containing internal standard at the appropriate time points. Samples were removed at 6 time points (0, 5, 15, 30, 45 and 60 min) over the course of a 60 min experiment. The termination plates are centrifuged at 2500 rpm at 4° C. for 30 min to precipitate the protein. Following protein precipitation, the sample supernatants were combined in cassettes of up to 4 compounds and analysed using generic LC-MS/MS conditions. From a plot of ln peak area ratio (compound peak area/internal standard peak area) against time, the gradient of the line is determined. Subsequently, half-life (t1/2) and intrinsic clearance (CLint) were calculated.

The nature of data set [7]: Rat pharmacokinetics in vivo. The following applies: male Sprague Dawley rats; for C 8 h / Cmax: doses 1 mg/kg (IV) and 10 mg/kg (PO); for Vd / clearance / bioavailability / half-life / AUC(0-t) / Cmax: rat, in vivo; for AUC(0-t): read-out: PO AUClast. How it is done: The pharmacokinetics of compounds were studied in vivo in rats at doses of 1 mg/kg (IV) and 10 mg/kg (PO).
Male rats (Sprague Dawley) surgically prepared with a jugular vein cannula were treated with experimental compounds via intravenous administration (IV; n=3; 1 mg/kg) or oral administration (PO; n=3; 10 mg/kg). Compounds were formulated as a solution in 40:60 dimethylacetamide:saline (IV administration), a suspension in 1% methyl cellulose (viscosity: 15 cP), 0.1% Tween80 in water (PO administration: Example 3), a solution in 10% DMSO/10% Cremaphor/80% water (PO administration: Examples 4, 11, 21, 23, 25, 26, 32) or a solution in 10% DMSO/20% Cremaphor/70% water (PO administration: Examples 19, 20, 22, 24, 30). […] Serial blood samples were collected via the cannula at 0.02, 0.08, 0.25, 0.5, 1, 2, 4, 6, 8 and 24 h post IV dosing of compound, and at 0.08, 0.25, 0.5, 1, 2, 4, 6, 8 and 24 h post oral dosing of compound, and plasma was prepared by centrifugation and stored immediately at −80° C. Samples were subsequently thawed, prepared for analysis by protein precipitation with acetonitrile, and analysed by tandem LCMS using electrospray ionisation using a matrix-matched calibration curve. PK parameters were calculated from the resulting data.

The nature of data set [8]: Liver hepatocyte stability, human. The following applies: human hepatocytes, 3 μM compound, 60 min, >80% remaining at 60 min denoted >186, read-out: Liver Hepatocyte Stability: t1/2 (min). It counts as in vitro ADME. How it is done: as §2
The nature of data set [9]: Liver hepatocyte stability, rat. It counts as in vitro ADME. The following applies: rat hepatocytes, 3 μM compound, 60 min, >80% remaining at 60 min denoted >186, read-out: Liver Hepatocyte Stability: t1/2 (min). How it is done:
as §2

Data set [10] is described as follows: Cell cytotoxicity CC50. It counts as cell-based. The following applies: human; mean of at least two experiments.
In data set [11] the test system is RSV. The note with it: Antimicrobial Agents and Chemotherapy, September 2007, 3346-3353; cited from earlier work.
Where [12] appears, read: IV 1 mg/kg, read-out: IV t½ (converted).
[13] abbreviates: PO 10 mg/kg, read-out: PO t½ (converted).
Setting [14] is: human respiratory syncytial virus, HepG2.

As to “3-[6-(Cyclopropylamino)-2-fluoropyridin-3-yl]-1-(oxetan-3-yl)-N-[(3S)-2-oxo-5-phenyl-1,3-dihydro-1,4-benzodiazepin-3-yl]pyrazole-4-carboxamide [Example 37]”, it took 78 nM to reach a half-maximal effect in [1] (EC50). In [2], the CC50 – broadly, the concentration that lowers cell viability or growth by half – is over 25000 nM.
As to “3-[6-(Cyclopropylamino)-2-fluoropyridin-3-yl]-N-[(3S)-9-fluoro-2-oxo-5-phenyl-1,3-dihydro-1,4-benzodiazepin-3-yl]-1-(oxetan-3-yl)pyrazole-4-carboxamide [Example 36]”, in data set [3], the “Liver Microsomal Stability: t1/2 (min); dog” value is recorded as 191 min. Also, the “Liver Microsomal Stability: t1/2 (min); human” value in data set [4] is given as 68.5 min. Also, the EC50 (as a rule, the concentration at which the effect is half-maximal) in [1] came out at 45 nM. The molecule also displayed a CC50 in data set [2] of over 25000 nM. Further, in [5], the “Liver Microsomal Stability: t1/2 (min); rat” value was determined as 93.2 min.
Take `CCn1cc(C(=O)N[C@H]2N=C(c3ccccc3)c3ccccc3NC2=O)c(-c2ccc(NC3CC3)nc2F)n1` [Example 25, 3-[6-(Cyclopropylamino)-2-fluoropyridin-3-yl]-1-ethyl-N-[(3S)-2-oxo-5-phenyl-1,3-dihydro-1,4-benzodiazepin-3-yl]pyrazole-4-carboxamide]: the half-life is 17 min in [3]; 68.1 min in data set [6]; 1.3 h in data set [7] (setting [12]); 2.7 h in [7] (setting [13]); 82.8 min in data set [4]; 506 min in data set [8]. For the same molecule, the half-life in data set [9] was over 186 min; in data set [5], 46.3 min. For the same molecule, in [7], the “C 8 h” value is recorded as 294 ng/mL. Further, the Vd (in general, the apparent volume that relates the amount in the body to the concentration in plasma or blood) in data set [7] (IV 1 mg/kg) was 0.9 L/kg. Moreover, in [7] (IV 1 mg/kg), the clearance (usually a measure of how efficiently the substance is removed, as volume per time) came to 15.9 mL/min/kg. Moreover, the bioavailability (usually dose-corrected exposure relative to a reference, in per cent) in data set [7] (IV 1 mg/kg, PO 10 mg/kg) was found to be 71.5%. Further, the AUC(0-t) in data set [7] (PO 10 mg/kg) came out at 7470 ng·h/mL. In addition, the Cmax (as a rule, the maximum level reached in the sampled fluid or tissue) in data set [7] stood at 1150 ng/mL. This molecule also registered an EC50 in [1] (setting [14]) of 49 nM. Moreover, in data set [10], the CC50 is over 25000 nM.
For `CCn1cc(C(=O)N[C@H]2N=C(c3ccccc3)c3cccc(F)c3NC2=O)c(-c2ccc(NC3CC3)nc2F)n1` [Example 26, 3-[6-(Cyclopropylamino)-2-fluoropyridin-3-yl]-1-ethyl-N-[(3S)-9-fluoro-2-oxo-5-phenyl-1,3-dihydro-1,4-benzodiazepin-3-yl]pyrazole-4-carboxamide], the half-life was 30.8 min in data set [3]; 160 min in data set [6]; 2.6 h in [7] (setting [12]); 2.6 h in [7] (setting [13]); 84.9 min in data set [4]; over 186 min in data set [8]. For the same molecule, the half-life in data set [9] was over 186 min; in data set [5] it was 70.2 min. In addition, in data set [7], the “C 8 h” value is 919 ng/mL. The same molecule displayed a Vd in data set [7] (IV 1 mg/kg) of 1.1 L/kg. Besides, in [7] (IV 1 mg/kg), the clearance was 8.2 mL/min/kg. The molecule also returned a bioavailability in data set [7] (IV 1 mg/kg, PO 10 mg/kg) of 95.6%. For the same molecule, the AUC(0-t) in data set [7] (PO 10 mg/kg) was determined as 19400 ng·h/mL. Also, the Cmax in [7] was 2120 ng/mL. The molecule further showed an EC50 in data set [1] (setting [14]) of 36 nM. The same molecule yielded a CC50 in [10] of over 25000 nM.
Regarding `CC(C)(C)n1cc(C(=O)N[C@H]2N=C(c3ccccc3)c3cccc(F)c3NC2=O)c(-c2ccc(NC3CC3)nc2F)n1` [Example 30, 1-tert-Butyl-3-[6-(cyclopropylamino)-2-fluoropyridin-3-yl]-N-[(3S)-9-fluoro-2-oxo-5-phenyl-1,3-dihydro-1,4-benzodiazepin-3-yl]pyrazole-4-carboxamide], the half-life was 63.7 min in data set [3]; over 186 min in data set [6]; 1.8 h in data set [7] (setting [12]); 3 h in data set [7] (setting [13]); 253 min in data set [4]; 71.3 min in data set [8]. In addition, the half-life was determined as 98.5 min in data set [9] and 53.1 min in [5]. Further, the “C 8 h” value in [7] is reported as 444 ng/mL. Also, the Vd in [7] (IV 1 mg/kg) worked out at 1.4 L/kg. The molecule further yielded a clearance in data set [7] (IV 1 mg/kg) of 11.2 mL/min/kg. In addition, the bioavailability in data set [7] (IV 1 mg/kg, PO 10 mg/kg) was determined as 57%. In addition, the AUC(0-t) in [7] (PO 10 mg/kg) turned out to be 8540 ng·h/mL. In data set [7], this molecule showed a Cmax of 918 ng/mL. For the same molecule, the EC50 in data set [1] (setting [14]) is 32 nM. In data set [10], this molecule yielded a CC50 of over 25000 nM.
With `O=C(N[C@H]1N=C(c2ccccc2)c2cccc(F)c2NC1=O)c1cn(C2CCOCC2)nc1-c1ccc(NC2CC2)nc1F` [Example 32, 3-[6-(Cyclopropylamino)-2-fluoropyridin-3-yl]-N-[(3S)-9-fluoro-2-oxo-5-phenyl-2,3-dihydro-1H-1,4-benzodiazepin-3-yl]-1-(oxan-4-yl)-1H-pyrazole-4-carboxamide], the half-life in data set [3] was 331 min; in data set [6], over 186 min; in data set [7] (setting [12]) it was 1.2 h; in data set [7] (setting [13]), 5.2 h; in [4], 298 min; in data set [8] it was over 186 min. The half-life in data set [9] turned out to be 376 min; in data set [5], 127 min. Further, in data set [7], the “C 8 h” value amounted to 84 ng/mL. Also, the Vd in data set [7] (IV 1 mg/kg) was determined as 1.1 L/kg. Also, in data set [7] (IV 1 mg/kg), the clearance was 17.7 mL/min/kg. Besides, the bioavailability in data set [7] (IV 1 mg/kg, PO 10 mg/kg) was found to be 19.3%. Further, the AUC(0-t) in [7] (PO 10 mg/kg) is 1940 ng·h/mL. The molecule also displayed a Cmax in [7] of 452 ng/mL. This molecule also returned an EC50 in data set [1] (setting [14]) of 58 nM. This molecule displayed a CC50 in data set [10] of over 25000 nM.
For `O=C(Nc1ccccc1F)N[C@H]1N=C(c2ccccc2)c2ccccc2NC1=O` [RSV604], the anti-RSV activity entry in data set [11] is “sub-micromolar”.
